Measurements reported in publication PMC10974533, “Cationicity Enhancement on the Hydrophilic Face of Ctriporin Significantly Reduces Its Hemolytic Activity and Improves the Antimicrobial Activity against Antibiotic-Resistant ESKAPE Pathogens” (Toxins, 2024).
Where a SMILES comes first, the peptide text is derived from it.

Tests used:
Format in all cases: cell-based
[1] = test system: A. baumannii ATCC19606; test: MIC, broth dilution, standard strain; conditions: broth dilution (CLSI), MHB, 37 °C, 16–20 h
Description: (§1) The standard strains, including S. aureus ATCC29213 and ATCC25923, E. faecalis ATCC29212, E. coli ATCC25922 and ATCC35218, A. baumannii ATCC19606, K. pneumoniae ATCC700603, and P. aeruginosa ATCC27853, were purchased from the China Center of Type Culture Collection (CCTCC). The clinical strains of the ESKAPE pathogens were isolated from the affiliated hospitals of Hubei University of Medicine. All of them were stored at −80 °C before use. The drug sensitivities of the clinical strains were determined by the Kirby–Bauer test.
(§2) The MICs were determined using the broth dilution method according to the guidelines of the Clinical and Laboratory Standards Institute (CLSI), as described in the previous studies. Briefly, the bacterial cells were incubated in Mueller–Hinton broth (MHB, Oxoid, Basingstoke, UK) at 37 °C and 150 rpm to the mid-growth phase and diluted to achieve a final concentration of 5 × 10^5 colony-forming units per milliliter (CFU/mL). Then, the cells were mixed with each peptide in different concentrations (1, 2, 4, 8, 16, 32, and 64 μg/mL). […] All experiments were repeated at least three times.

[2] = test system: E. coli ATCC25922; test: MIC, broth dilution, standard strain; conditions: broth dilution (CLSI), MHB, 37 °C, 16–20 h
Description: as §1, §2

[3] = test system: E. coli ATCC35218; test: MIC, broth dilution, standard strain; conditions: broth dilution (CLSI), MHB, 37 °C, 16–20 h
Description: as §1, §2

[4] = test system: E. faecium ATCC29212; test: MIC, broth dilution, standard strain; conditions: broth dilution (CLSI), MHB, 37 °C, 16–20 h
Description: as §1, §2

[5] = test system: K. pneumoniae ATCC700603; test: MIC, broth dilution, standard strain; conditions: broth dilution (CLSI), MHB, 37 °C, 16–20 h
Description: as §1, §2

[6] = test system: P. aeruginosa ATCC27853; test: MIC, broth dilution, standard strain; conditions: broth dilution (CLSI), MHB, 37 °C, 16–20 h
Description: as §1, §2

[7] = test system: S. aureus ATCC25923; test: MIC, broth dilution, standard strain; conditions: broth dilution (CLSI), MHB, 37 °C, 16–20 h
Description: as §1, §2

[8] = test system: S. aureus ATCC29213; test: MIC, broth dilution, standard strain; conditions: broth dilution (CLSI), MHB, 37 °C, 16–20 h
Description: as §1, §2

[9] = test system: human red blood cells (hRBC); test: Hemolytic activity determination; conditions: 2% (v/v) hRBC, 37 °C, 1 h; for Hemolysis% at 256 μg/mL: 256 μg/mL peptide, OD540, 1% Triton X-100 = 100%, average ± standard error of three independent experiments; for curve of hemolysis% vs. peptide concentration (Figure 2): 0–512 μg/mL peptide, compared in words
Description: Figure 2 Hemolytic activities of Ctriporin and its analogs against human red blood cells (hRBC). Hemolytic activities of Ctriporin (solid circle), CM1 (open circle), CM2 (open square), CM3 (upward triangle), CM4 (downward triangle), CM5 (half solid circle), CM6 (half solid square), and CM7 (half solid triangle), were measured against 2% (v/v) human red blood cells. The peptide concentrations are 0, 2, 4, 8, 16, 32, 64, 128, 256, and 512 μg/mL. The cells treated with 1% Triton X-100 were treated as 100% hemolysis. All experiments were repeated three times, and the data shown are the average ± standard error.
The hemolytic activities of the peptides were determined against human red blood cells (hRBCs). As described, sodium citrate-anticoagulated hRBCs were washed three times with 0.9% sodium chloride and diluted to a final concentration of 4% (v/v). Then, an equal volume of hRBC solutions was mixed with an equal volume of each peptide in a series of concentrations (0, 2, 4, 8, 16, 32, 64, 128, 256, and 512 μg/mL). After co-incubation at 37 °C for 1 h, the degree of hemolysis of the peptides was determined by detecting the release of hemoglobin from the damaged hRBCs by measuring the optical density at 540 nm (OD540). hRBCs in 0.9% sodium chloride and 1% Triton X-100 were considered 0% and 100% hemolysis, respectively. The results shown are the average ± standard error of data derived from three independent experiments. The percent hemolysis was calculated according to the following equation [53, 54]:Hemolysis (%) = 100 × (Asample − Ablank)/(Apositive − Ablank)

[10] = test system: standard ESKAPE strains; conditions: broth dilution (CLSI), MHB, 37 °C, 16–20 h; range over all standard strains
Description: The ESKAPE pathogens represent the main threat to public health concerning antimicrobial resistance. Therefore, we first evaluated the antimicrobial activities of Ctriporin and its analogs against the standard ESKAPE strains. The minimum inhibitory concentration (MIC) was chosen as the index for the evaluation of each peptide’s activity. […] Note that the MICs of CM4 and CM7 are 4–32 and 8–32 μg/mL, respectively, indicating the existence of significant bacterial species deviations for the antimicrobial activity of these peptides. In addition, the replacement of specific residues, especially Pro^7, may harm the antimicrobial activities of the peptide.
as §1, §2

[11] = 5 × 10^5 CFU/mL, OD630, repeated at least three times

Compound	MICs [1, 11] [µg/mL]	MICs ([1]; value in parentheses) [µM]	MICs [2, 11] [µg/mL]	MICs [3, 11] [µg/mL]	MICs ([3]; value in parentheses) [µM]	MICs [4, 11] [µg/mL]	MICs ([4]; value in parentheses) [µM]	MICs [5, 11] [µg/mL]	MICs ([5]; value in parentheses) [µM]	MICs [6, 11] [µg/mL]	MICs ([6]; value in parentheses) [µM]	MICs [7, 11] [µg/mL]	MICs ([7]; value in parentheses) [µM]	MICs [8, 11] [µg/mL]	MICs ([8]; value in parentheses) [µM]	Hemolysis% at 256 μg/mL [9] [%]	MICs ([2]; value in parentheses) [µM]	MICs against the ESKAPE pathogens (range over the standard strains of Table 2) [10] [µg/mL]	curve of hemolysis% vs. peptide concentration (Figure 2) [9]
CC[C@H](C)[C@H](NC(=O)[C@H](C)NC(=O)CNC(=O)[C@@H]1CCCN1C(=O)[C@@H](NC(=O)[C@H](CC(C)C)NC(=O)[C@H](CCCCN)NC(=O)[C@H](Cc1c[nH]c2ccccc12)NC(=O)[C@H](CC(C)C)NC(=O)[C@@H](N)Cc1ccccc1)[C@@H](C)CC)C(=O)N[C@@H](CO)C(=O)N[C@@H](C)C(=O)N[C@H](C(=O)N[C@H](C(=O)N[C@@H](CO)C(=O)N[C@@H](CC(C)C)C(=O)N[C@H](C(=O)N[C@@H](CCCCN)C(=O)N[C@@H](CCCCN)C(N)=O)[C@@H](C)CC)[C@@H](C)O)C(C)C [CM1] (H-FLWKLIPGAISAVTSLIKK-NH2; N-terminus assumed)	8	3.8	8	32	15.4	16	7.7	64	30.7	> 64	> 30.7	16	7.7	8	3.8	75.6 ± 10.1			
CC[C@H](C)[C@H](NC(=O)[C@H](C)NC(=O)[C@H](CCCCN)NC(=O)[C@@H]1CCCN1C(=O)[C@@H](NC(=O)[C@H](CC(C)C)NC(=O)[C@H](CCCCN)NC(=O)[C@H](Cc1c[nH]c2ccccc12)NC(=O)[C@H](CC(C)C)NC(=O)[C@@H](N)Cc1ccccc1)[C@@H](C)CC)C(=O)N[C@@H](CO)C(=O)N[C@@H](C)C(=O)N[C@H](C(=O)N[C@H](C(=O)N[C@@H](CO)C(=O)N[C@@H](CC(C)C)C(=O)N[C@H](C(=O)N[C@@H](CCCCN)C(=O)N[C@@H](CCCCN)C(N)=O)[C@@H](C)CC)[C@@H](C)O)C(C)C [CM2] (H-FLWKLIPKAISAVTSLIKK-NH2; N-terminus assumed)	4	1.9	4	8	3.7	4	1.9	16	7.4	16	7.4	8	3.7	4	1.9	74.3 ± 9.2	1.9		
CC[C@H](C)[C@H](NC(=O)[C@H](C)NC(=O)[C@H](CCCCN)NC(=O)[C@@H]1CCCN1C(=O)[C@@H](NC(=O)[C@H](CC(C)C)NC(=O)[C@H](CCCCN)NC(=O)[C@H](Cc1c[nH]c2ccccc12)NC(=O)[C@H](CC(C)C)NC(=O)[C@@H](N)Cc1ccccc1)[C@@H](C)CC)C(=O)N[C@@H](CCCCN)C(=O)N[C@@H](C)C(=O)N[C@H](C(=O)N[C@H](C(=O)N[C@@H](CO)C(=O)N[C@@H](CC(C)C)C(=O)N[C@H](C(=O)N[C@@H](CCCCN)C(=O)N[C@@H](CCCCN)C(N)=O)[C@@H](C)CC)[C@@H](C)O)C(C)C [CM3] (H-FLWKLIPKAIKAVTSLIKK-NH2; N-terminus assumed)	4	1.8	4	4	1.8	4	1.8	8	3.6	8	3.6	4	1.8	4	1.8	89.1 ± 12.1	1.8	4 to 8	
CC[C@H](C)[C@H](NC(=O)[C@H](C)NC(=O)[C@H](CCCCN)NC(=O)[C@@H]1CCCN1C(=O)[C@@H](NC(=O)[C@H](CC(C)C)NC(=O)[C@H](CCCCN)NC(=O)[C@H](Cc1c[nH]c2ccccc12)NC(=O)[C@H](CC(C)C)NC(=O)[C@@H](N)Cc1ccccc1)[C@@H](C)CC)C(=O)N[C@@H](CCCCN)C(=O)N[C@@H](CCCCN)C(=O)N[C@H](C(=O)N[C@H](C(=O)N[C@@H](CO)C(=O)N[C@@H](CC(C)C)C(=O)N[C@H](C(=O)N[C@@H](CCCCN)C(=O)N[C@@H](CCCCN)C(N)=O)[C@@H](C)CC)[C@@H](C)O)C(C)C [CM4] (H-FLWKLIPKAIKKVTSLIKK-NH2; N-terminus assumed)	4	1.8	8	16	7.1	16	7.1	32	14.2	16	7.1	8	3.6	4	1.8	14.0 ± 4.7	3.6	4 to 32	decreased dramatically compared with Ctriporin
CC[C@H](C)[C@H](NC(=O)[C@H](C)NC(=O)[C@H](CCCCN)NC(=O)[C@H](CCCCN)NC(=O)[C@@H](NC(=O)[C@H](CC(C)C)NC(=O)[C@H](CCCCN)NC(=O)[C@H](Cc1c[nH]c2ccccc12)NC(=O)[C@H](CC(C)C)NC(=O)[C@@H](N)Cc1ccccc1)[C@@H](C)CC)C(=O)N[C@@H](CCCCN)C(=O)N[C@@H](CCCCN)C(=O)N[C@H](C(=O)N[C@@H](CCCCN)C(=O)N[C@@H](CCCCN)C(=O)N[C@@H](CC(C)C)C(=O)N[C@H](C(=O)N[C@@H](CCCCN)C(=O)N[C@@H](CCCCN)C(N)=O)[C@@H](C)CC)C(C)C [CM7] (H-FLWKLIKKAIKKVKKLIKK-NH2; N-terminus assumed)	8	3.4	32	16		32	13.6	32		8	3.4	32	13.6	32	13.6	57.5 ± 9.8	13.6	8 to 32	positions closely to those of CM3
